Experimental data: US20210101928A1 (Sage Therapeutics, Inc., priority 2017, published 2021)

Molecular target: GABAA receptor ([35S]-TBPS binding, rat brain cortical membranes)
Assay: Steroid inhibition of [35S]-TBPS binding
Settings: Table I-1, 3 nM [35S]-TBPS, in the presence of 5 mM GABA, read-out: TBPS binding IC50
Method: [^35S]-t-Butylbicyclophosphorothionate (TBPS) binding assays using rat brain cortical membranes in the presence of 5 mM GABA has been described (Gee et al, J. Pharmacol. Exp. Ther. 1987, 241, 346-353; Hawkinson et al, Mol. Pharmacol. 1994, 46, 977-985; Lewin, A. H et al., Mol. Pharmacol. 1989, 35, 189-194).
Briefly, cortices are rapidly removed following decapitation of carbon dioxide-anesthetized Sprague-Dawley rats (200-250 g). The cortices are homogenized in 10 volumes of ice-cold 0.32 M sucrose using a glass/teflon homogenizer and centrifuged at 1500×g for 10 min at 4° C. The resultant supernatants are centrifuged at 10,000×g for 20 min at 4° C. to obtain the P2 pellets. The P2 pellets are resuspended in 200 mM NaCl/50 mM Na—K phosphate pH 7.4 buffer and centrifuged at 10,000×g for 10 min at 4° C. This washing procedure is repeated twice and the pellets are resuspended in 10 volumes of buffer. Aliquots ([…]) of the membrane suspensions are incubated with 3 nM [^35S]-TBPS and […] aliquots of test drug dissolved in dimethyl sulfoxide (DMSO) (final 0.5%) in the presence of 5 mM GABA. The incubation is brought to a final volume of 1.0 mL with buffer. Nonspecific binding is determined in the presence of […] and ranged from 15 to 25%. Following a 90 min incubation at room temp, the assays are terminated by filtration through glass fiber filters (Schleicher and Schuell No. 32) using a cell harvester (Brandel) and rinsed three times with ice-cold buffer. Filter bound radioactivity is measured by liquid scintillation spectrometry. Non-linear curve fitting of the overall data for each drug averaged for each concentration is done using Prism (GraphPad). […] The concentration of test compound producing 50% inhibition (IC50) of specific binding and the maximal extent of inhibition (Imax) are determined for the individual experiments with the same model used for the overall data and then the means±SEM.s of the individual experiments are calculated.
Various compounds are or can be screened to determine their potential as modulators of [^35S]-TBPS binding in vitro. These assays are or can be performed in accordance with the above.

Which IC50 does the source give for `CN(CC(=O)[C@H]1CC[C@H]2[C@@H]3CC[C@]4(C)C[C@](C)(O)CC[C@]4(C)[C@H]3CC[C@]12C)c1ccccc1` [I-A2, 1-((3R,5R,8S,9S,10R,13S,14S,17S)-3-hydroxy-3,5,10,13-tetramethylhexadecahydro-1H-cyclopenta[a]phenanthren-17-yl)-2-(methyl(phenyl)amino)ethan-1-one] here?
Its IC50 is 100 to 1000 nM.

`C[C@@]1(O)CC[C@]2(C)[C@H]3CC[C@]4(C)[C@@H](C(=O)CNc5ccccc5)CC[C@H]4[C@@H]3CC[C@]2(C)C1` [I-A3, 1-((3R,5R,8S,9S,10R,13S,14S,17S)-3-hydroxy-3,5,10,13-tetramethylhexadecahydro-1H-cyclopenta [a]phenanthren-17-yl)-2-(phenylamino)ethan-1-one] was tested. Which IC50 did it give?
The IC50 was 100 to 1000 nM.

For `C[C@@]1(O)CC[C@]2(C)[C@H]3CC[C@]4(C)[C@@H](C(=O)Cn5cc(C#N)cn5)CC[C@H]4[C@@H]3CC[C@]2(C)C1` [I-A4, 1-(2-((3R,5R,8S,9S,10R,13S,14S,17S)-3-hydroxy-3,5,10,13-tetramethylhexadecahydro-1H-cyclopenta[a]phenanthren-17-yl)-2-oxoethyl)-1H-pyrazole-4-carbonitrile], which IC50 is on record?
Its IC50 is 100 to 1000 nM.

How did the IC50 turn out when `CC(=O)[C@H]1CC[C@H]2[C@@H]3CC[C@]4(C)C[C@@](C)(O)CC[C@]4(C)[C@H]3CC[C@]12C` [I-A5, 1-((3S,5R,8S,9S,10R,13S,14S,17S)-3-hydroxy-3,5,10,13-tetramethylhexadecahydro-1H-cyclopenta[a]phenanthren-17-yl)ethan-1-one] was run?
The IC50 was 1000 to 10000 nM.

For `C[C@@]1(O)CC[C@]2(C)[C@H]3CC[C@]4(C)[C@@H](C(=O)Cn5cc6ccncc6n5)CC[C@H]4[C@@H]3CC[C@]2(C)C1` [I-A6, 1-((3R,5R,8S,9S,10R,13S,14S,17S)-3-hydroxy-3,5,10,13-tetramethylhexadecahydro-1H-cyclopenta[a]phenanthren-17-yl)-2-(2H-pyrazolo[3,4-c]pyridin-2-yl)ethan-1-one], which IC50 is on record?
The IC50 was 100 to 1000 nM.

With `C[C@@]1(O)CC[C@]2(C)[C@H]3CC[C@]4(C)[C@@H](C(=O)Cn5ncc6ccncc65)CC[C@H]4[C@@H]3CC[C@]2(C)C1` [I-A7, 1-((3R,5R,8S,9S,10R,13S,14S,17S)-3-hydroxy-3,5,10,13-tetramethylhexadecahydro-1H-cyclopenta[a]phenanthren-17-yl)-2-(1H-pyrazolo[3,4-c]pyridin-1-yl)ethan-1-one] as the compound, how does the IC50 read?
Its IC50 is 100 to 1000 nM.

Same assay, conditions: Table II-2, 3 nM [35S]-TBPS, in the presence of 5 mM GABA, read-out: TBPS IC50

For `CC[C@]12CC[C@@](C)(O)C[C@H]1CC[C@H]1[C@@H]3CC[C@H](C(=O)Cn4cc(C#N)cn4)[C@@]3(C)CC[C@@H]12`, which IC50 is on record?
The IC50 was less than 10 nM.

For `CC[C@]12CC[C@@](C)(O)C[C@H]1CC[C@H]1[C@@H]3CC[C@H](C(=O)Cn4nnc5ccc(OC)cc54)[C@@]3(C)CC[C@@H]12` (single isomer, unassigned) [II-M2], which IC50 is on record?
The IC50 was less than 10 nM.

With `CC[C@]12CC[C@@](C)(O)C[C@H]1CC[C@H]1[C@@H]3CC[C@H](C(=O)Cn4nnc5cc(OC)ccc54)[C@@]3(C)CC[C@@H]12` (single isomer, unassigned) [II-M2a] as the compound, how does the IC50 read?
The IC50 was less than 10 nM.

Which IC50 does the source give for `CC[C@]12CC[C@@](C)(O)C[C@H]1CC[C@H]1[C@@H]3CC[C@H](C(=O)Cn4nc5ccc(OC)cc5n4)[C@@]3(C)CC[C@@H]12` (single isomer, unassigned) [II-M2b] here?
The IC50 was less than 10 nM.

Which IC50 does the source give for `CCOC[C@@]1(O)CC[C@@]2(CC)C(CC[C@@H]3[C@@H]2CC[C@]2(C)[C@@H](C(=O)Cn4nnc(C)n4)CC[C@@H]32)C1` (stereo in doubt) [II-77, 1-((3R,5R,8S,9S,10S,13S,14S,17S)-3-(ethoxymethyl)-10-ethyl-3-hydroxy-13-methylhexadecahydro-1H-cyclopenta[a]phenanthren-17-yl)-2-(5-methyl-2H-tetrazol-2-yl)ethan-1-one] here?
Its IC50 is 10 to 100 nM.
